# Active and inactive are the calls of the source. The rule behind the calls is not given here.
# Tests used:
# [1] = Cytotoxicity against Sus scrofa (pig) LLC-PK11 cells assessed as cell viability up to 25 ug/ml after 48 hr by neutral red assay; type: cell-based; settings: llc-pk11, 48 h
# Candida albicans [2] = assay: Antifungal activity against Candida albicans ATCC 90028 after 24 hr by NCCLS broth microdilution method; type: functional; settings: ATCC 90028, 24 h
# Candida albicans [3] = assay: Antifungal activity against Candida albicans clinical isolate after 24 hr by NCCLS broth microdilution method; type: functional
# Candida parapsilosis = assay: Antifungal activity against Candida parapsilosis NRRL Y-12696 after 24 hr by NCCLS broth microdilution method; type: functional; settings: Lodderomyces parapsilosis, NRRL Y-12696, 24 h
# SK-OV-3 = assay: Cytotoxicity against Homo sapiens (human) SKOV3 cells assessed as cell viability up to 25 ug/ml after 48 hr by neutral red assay; type: functional, cell-based
# KB = assay: Cytotoxicity against Homo sapiens (human) KB cells assessed as cell viability up to 25 ug/ml after 48 hr by neutral red assay; type: functional, cell-based
# Nakaseomyces glabratus = assay: Antifungal activity against Candida glabrata clinical isolate after 24 hr by NCCLS broth microdilution method; type: functional
# Pichia kudriavzevii = assay: Antifungal activity against Pichia kudriavzevii NRRL Y-7179 after 24 hr by NCCLS broth microdilution method; type: functional; settings: NRRL Y-7179, 24 h
# RAW264.7 = assay: Cytotoxicity against Mus musculus (mouse) RAW264.7 cells up to 25 ug/ml; type: cell-based
# [4] = target: T1, Nitric oxide synthase, inducible (Mus musculus, UniProt P29477); assay: Inhibition of iNOS in Mus musculus (mouse) RAW264.7 cells assessed as inhibition of LPS-induced nitrite production incubated for 30 min prior to LPS challenge measured after 24 hr by Griess assay; type: cell-based
# T1 sequence (P29477 whole entry): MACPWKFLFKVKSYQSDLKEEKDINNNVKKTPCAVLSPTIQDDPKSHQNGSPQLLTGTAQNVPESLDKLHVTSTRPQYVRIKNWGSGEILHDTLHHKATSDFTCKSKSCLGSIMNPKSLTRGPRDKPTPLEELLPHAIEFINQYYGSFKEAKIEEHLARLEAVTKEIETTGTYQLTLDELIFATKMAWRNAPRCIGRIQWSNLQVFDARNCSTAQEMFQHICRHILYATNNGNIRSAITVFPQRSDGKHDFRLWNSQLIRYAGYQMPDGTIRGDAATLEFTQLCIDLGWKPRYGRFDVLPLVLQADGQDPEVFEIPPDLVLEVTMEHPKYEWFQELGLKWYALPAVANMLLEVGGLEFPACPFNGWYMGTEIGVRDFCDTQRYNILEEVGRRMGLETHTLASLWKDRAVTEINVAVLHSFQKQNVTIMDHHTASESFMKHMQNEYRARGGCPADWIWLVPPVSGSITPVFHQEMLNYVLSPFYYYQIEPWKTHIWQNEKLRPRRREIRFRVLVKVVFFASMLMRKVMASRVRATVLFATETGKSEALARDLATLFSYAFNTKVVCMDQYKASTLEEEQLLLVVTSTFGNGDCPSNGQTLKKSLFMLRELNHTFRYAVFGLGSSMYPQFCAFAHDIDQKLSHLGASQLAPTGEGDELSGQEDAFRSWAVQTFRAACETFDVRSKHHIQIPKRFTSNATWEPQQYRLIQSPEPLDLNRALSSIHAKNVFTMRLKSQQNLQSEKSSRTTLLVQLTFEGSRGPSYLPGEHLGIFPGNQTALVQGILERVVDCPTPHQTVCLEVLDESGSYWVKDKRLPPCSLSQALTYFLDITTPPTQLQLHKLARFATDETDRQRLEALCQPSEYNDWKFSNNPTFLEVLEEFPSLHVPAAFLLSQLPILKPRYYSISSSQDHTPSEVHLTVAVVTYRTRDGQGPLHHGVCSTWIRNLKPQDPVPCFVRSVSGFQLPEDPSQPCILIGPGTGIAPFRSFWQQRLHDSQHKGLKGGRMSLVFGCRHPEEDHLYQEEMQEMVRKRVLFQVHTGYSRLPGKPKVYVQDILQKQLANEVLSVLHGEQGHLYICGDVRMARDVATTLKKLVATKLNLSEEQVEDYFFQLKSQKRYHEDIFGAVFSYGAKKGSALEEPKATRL
# Candida albicans [5] = assay: Antifungal activity against Candida albicans NRRL Y-12983 after 24 hr by NCCLS broth microdilution method; type: functional; settings: NRRL Y-12983, 24 h
# HL-60 [6] = assay: Antioxidant activity in PMA-stimulated Homo sapiens (human) HL60 cells assessed as inhibition of intracellular ROS generation up to 25 ug/ml incubated for 30 min prior to PMA stimulation measured after 30 min by DCFH-DA assay relative to vehicle-treated control; type: functional, cell-based
# Candida albicans [7] = assay: Antifungal activity against Candida albicans clinical isolate at 2000 ug/ml by agar diffusion method; type: functional; settings: read-out: IZ
# BT-549 = assay: Cytotoxicity against Homo sapiens (human) BT549 cells assessed as cell viability up to 25 ug/ml after 48 hr by neutral red assay; type: functional, cell-based
# Colletotrichum fragariae = assay: Antifungal activity against Colletotrichum fragariae at 0.3 to 30 uM after 48 to 72 hr by broth microdilution method; type: functional, organism-based
# Candida tropicalis [8] = assay: Antifungal activity against Candida tropicalis NRRL Y-12968 at 2000 ug/ml by agar diffusion method; type: functional; settings: read-out: IZ
# Cyberlindnera jadinii = assay: Antifungal activity against Cyberlindnera jadinii NRRL Y-900 after 24 hr by NCCLS broth microdilution method; type: functional; settings: Williopsis jadinii, NRRL Y-900, 24 h
# SK-MEL = assay: Cytotoxicity against Homo sapiens (human) SK-MEL cells assessed as cell viability up to 25 ug/ml after 48 hr by neutral red assay; type: functional, cell-based
# Candida tropicalis [9] = assay: Antifungal activity against Candida tropicalis NRRL Y-12968 after 24 hr by NCCLS broth microdilution method; type: functional; settings: NRRL Y-12968, 24 h
# [10] = Inhibition of PMA-induced NFkappaB activity in Homo sapiens (human) SW1353 cells incubated for 30 min followed by PMA induction for 8 hr by luciferase reporter gene assay; type: cell-based
# Transcription factor Sp1 = Transcription factor Sp1 (Homo sapiens, UniProt P08047); assay: Inhibition of Sp1 (unknown origin) up to 25 ug/ml by luciferase reporter gene assay
# Chain of Transcription factor Sp1 (P08047 whole entry): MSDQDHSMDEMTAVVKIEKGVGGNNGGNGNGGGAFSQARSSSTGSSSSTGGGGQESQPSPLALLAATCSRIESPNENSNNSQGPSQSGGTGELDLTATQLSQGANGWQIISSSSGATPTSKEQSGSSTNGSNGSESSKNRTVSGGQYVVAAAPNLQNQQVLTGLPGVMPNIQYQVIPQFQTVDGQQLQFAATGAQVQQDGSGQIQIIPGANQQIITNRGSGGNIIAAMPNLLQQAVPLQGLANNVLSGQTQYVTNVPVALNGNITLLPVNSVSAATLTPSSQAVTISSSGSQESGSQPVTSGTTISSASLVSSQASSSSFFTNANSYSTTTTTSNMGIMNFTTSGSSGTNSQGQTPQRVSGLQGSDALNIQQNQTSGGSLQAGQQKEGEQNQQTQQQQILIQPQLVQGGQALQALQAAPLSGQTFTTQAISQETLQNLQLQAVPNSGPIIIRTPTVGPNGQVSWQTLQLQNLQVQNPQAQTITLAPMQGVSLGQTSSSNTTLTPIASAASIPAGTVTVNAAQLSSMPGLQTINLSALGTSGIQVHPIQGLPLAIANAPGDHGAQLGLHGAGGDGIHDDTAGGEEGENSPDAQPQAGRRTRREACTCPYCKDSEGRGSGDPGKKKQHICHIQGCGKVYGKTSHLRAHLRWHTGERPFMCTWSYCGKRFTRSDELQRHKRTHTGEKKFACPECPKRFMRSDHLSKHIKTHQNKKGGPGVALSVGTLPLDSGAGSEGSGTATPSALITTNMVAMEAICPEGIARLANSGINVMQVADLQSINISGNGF
# Botrytis cinerea = assay: Antifungal activity against Botryotinia fuckeliana at 0.3 to 30 uM after 48 to 72 hr by broth microdilution method; type: functional, organism-based
# HL-60 [11] = assay: Cytotoxicity against Homo sapiens (human) HL60 cells up to 25 ug/ml; type: cell-based
# Vero = assay: Cytotoxicity against Chlorocebus aethiops (African green monkey) Vero cells assessed as cell viability up to 25 ug/ml after 48 hr by neutral red assay; type: cell-based; settings: chlorocebus sabaeus
# [12] = target: T2, Nitric oxide synthase, inducible (Mus musculus) (UniProt P29477); assay: Inhibition of iNOS in Mus musculus (mouse) RAW264.7 cells assessed as inhibition of LPS-induced nitrite production up to 25 ug/ml incubated for 30 min prior to LPS challenge measured after 24 hr by Griess assay relative to vehicle-treated control; type: cell-based
# T2 sequence (whole entry): T1 sequence (P29477 whole entry)
# HL-60 [13] = assay: Cytotoxicity against Homo sapiens (human) HL60 cells; type: cell-based
# SW1353 = assay: Inhibition of PMA-induced NFkappaB activity in Homo sapiens (human) SW1353 cells up to 25 ug/ml incubated for 30 min followed by PMA induction for 8 hr by luciferase reporter gene assay; type: cell-based
# HL-60 [14] = assay: Antioxidant activity in PMA-stimulated Homo sapiens (human) HL60 cells assessed as inhibition of intracellular ROS generation incubated for 30 min prior to PMA stimulation measured after 30 min by DCFH-DA assay; type: functional, cell-based
Structure (SMILES),Activity [1],MIC (Candida albicans [2]) [µg/mL],MIC (Candida albicans [3]) [µg/mL],MIC (Candida parapsilosis) [µg/mL],Activity (SK-OV-3),Activity (KB),MIC (Nakaseomyces glabratus) [µg/mL],MIC (Pichia kudriavzevii) [µg/mL],Activity (RAW264.7),MIC (Candida albicans [5]) [µg/mL],zone of inhibition at 2000 µg/mL (Candida albicans [7]) [mm],Activity (BT-549),zone of inhibition at 2000 µg/mL (Candida tropicalis [8]) [mm],MIC (Cyberlindnera jadinii) [µg/mL],Activity (SK-MEL),MIC (Candida tropicalis [9]) [µg/mL],IC50 [10] [µg/mL],inhibition (INH) (Transcription factor Sp1),Activity (HL-60 [11]),Activity (Vero),also measured
CC(=O)N1N=C(c2ccc(F)cc2)OC1c1ccc(O)cc1 (stereo not drawn),Not Active,500,250,250,inactive,inactive,500,250,Non-toxic,500,9,inactive,9,125,inactive,250,5.5,Not Active,Non-toxic,Not Active,IC50 [4]: 999 nM; inhibition (HL-60 [6]): inactive; Activity (Colletotrichum fragariae): inactive; Activity (Botrytis cinerea): inactive
O=C(N/N=C/c1ccccc1)c1ccc(F)cc1,Not Active,500,,250,inactive,inactive,250,500,Non-toxic,500,9,inactive,9,500,inactive,,2.8,,Non-toxic,Not Active,inhibition (HL-60 [6]): inactive; inhibition [12]: inactive
CC(=O)N1N=C(c2ccc(F)cc2)OC1c1ccco1 (stereo not drawn),Not Active,1000,500,1000,inactive,inactive,500,500,Non-toxic,500,9,inactive,9,500,inactive,500,,Not Active,,Not Active,IC50 (HL-60 [13]): 24 µg/mL; inhibition (SW1353): inactive; IC50 (HL-60 [14]): 5.2 µg/mL; inhibition [12]: inactive
O=C(N/N=C/c1ccco1)c1ccc(F)cc1,Not Active,500,250,500,inactive,inactive,250,500,Non-toxic,500,9,inactive,9,500,inactive,500,,Not Active,,Not Active,IC50 (HL-60 [13]): 27 µg/mL; IC50 [4]: > 108000 nM; inhibition (SW1353): inactive; IC50 (HL-60 [14]): 0.7 µg/mL
O=C(N/N=C/c1ccc(F)cc1)c1ccc(F)cc1,Not Active,500,250,500,inactive,inactive,,500,Non-toxic,500,9,inactive,9,500,inactive,500,15,Not Active,Non-toxic,Not Active,IC50 (HL-60 [14]): 20 µg/mL; inhibition [12]: inactive

# Source: ChEMBL document CHEMBL3046330, “Synthesis and biological activity of hydrazidehydrazones and their corresponding 3-acetyl-2,5-disubstituted-2,3-dihydro-1,3,4-oxadiazoles” (Med Chem Res, 2012)
